From patent US6569893B2, “Amino acid derivatives of triptolide compounds as immune modulators and anticancer agents” (Pharmagenesis, Inc., priority 2001, dated 2003)

Legend:
[1] = system: HT-29 human colon cancer cell line tumor xenografts; details: HT-29 xenografts, cited from earlier work
[2] = system: Jurkat human T lymphocyte cell line; test: Annexin V apoptosis assay after incubation of compound with human serum; format: cell-based
Procedure: (§1) Several compounds of formula I were prepared, as described in the Examples. In preliminary assays, the compounds were evaluated for their capacity to induce apoptosis in cells from the Jurkat human T lymphocyte cell line, after incubation with pooled human serum for 48 hrs at 37° C. (see Example 7). One of the compounds was also analyzed for its capacity to inhibit IL-2 production in Jurkat human T lymphocyte cells (see Example 8). Controls consisted of the compounds incubated in complete tissue culture medium (RPMI 1640 medium plus 5% heat-inactivated fetal calf serum, 1% HEPES, 1% pen/strep, 1% glutamine) rather than human serum.
(§2) The ED50/IC50 values (column 3) are calculated directly from the data in each experiment, and the % conversion values (column 4) are calculated as percent of the ED50 or IC50 value produced by triptolide, incubated in the same plasma (i.e. in the same experiment).
(§3) Pooled human serum was stored in aliquots at −80° C. […]
Test samples (incubated in human serum as described in section A) were prepared and diluted as described in section B, and Jurkat human T lymphocyte cells were prepared and added to wells containing 100 μl of the diluted compounds, also as described in section B. The plates were incubated at 37° C. in a 5% CO2 incubator. […] Cells positive for Annexin V binding were considered to be apoptotic, and the data were calculated as percent apoptotic cells. […]

[3] = system: IL-2 production in Jurkat human T lymphocyte cells; test: IL-2 production (inhibition) assay after incubation of compound with human serum; format: cell-based
Procedure: as §1, §2, §3
Test samples, incubated in human serum as described in Example 7A, were diluted to 1 mM in complete tissue culture medium. […] The stored supernatants were analyzed for human IL-2 concentration using the Luminex 100 (Luminex Corporation, Austin, Tex.), Luminex microspheres coupled with anti-IL-2 capture antibody, and fluorochrome-coupled anti-IL-2 detection antibody. The data were expressed as ng/ml of IL-2. […]

[4] = system: Jurkat human T lymphocyte cell line; test: Terminal deoxynucleotidyl transferase (TdT, TUNEL) apoptosis assay after incubation of compound with human serum; format: cell-based; details: for EC50: Jurkat cells, 24 h, compound pre-incubated 48 hr at 37° C. in pooled human serum, concentration inducing 50% apoptosis, read-out: ED50 (nM) after 48 hr incubation with human serum; for Conversion (relative activity compared to PG490) (%): percent of ED50 relative to triptolide incubated in parallel in human serum (taken as 100%)
Procedure: as §1, §2
Pooled human serum was stored in aliquots at −80° C. Test compounds were added at 20 mM to thawed human serum in 1.5 ml microfuge tubes and incubated at 37° C. in a water bath for 48 hours. The test samples were placed on ice until dilution for the bioassay. Controls consisted of the compounds incubated in complete tissue culture medium (RPMI 1640 medium plus 5% heat-inactivated fetal calf serum, 1% HEPES, 1% pen/strep, 1% glutamine) rather than human serum.
Test samples were diluted to 1 mM in complete tissue culture medium. Aliquots were placed in microculture plates and serial dilutions were prepared so that the final concentration would encompass the range of 2 to 6,000 nM with half-log increments. Cells from an exponentially expanding culture of the Jurkat human T lymphocyte cell line (#TIB-152 obtained from American Type Culture Collection, Manassas, Va.) were harvested, washed once by centrifugation and dilution in complete tissue culture medium, and diluted to a concentration of 1×10^6 cells/ml. A volume of 100 μl of Jurkat cells (1×10^5 cells) was added to wells containing 100 μl of the diluted compounds, and the plates were incubated at 37° C. in a 5% CO2 incubator. After 24 hours, the plates were centrifuged to pellet the cells, and the cells were washed with PBS. The cells were fixed in paraformaldehyde, washed, treated with ethanol, washed and then incubated with the enzyme terminal deoxynucleotidyl transferase (TdT) and fluorescein labeled-deoxyuridine (dUTP). The process allows 3′ end labeling of DNA molecules which were nicked during the DNA fragmentation phase of apoptosis (terminal deoxynucleotidyl transferase dUTP nick end labeling; TUNEL labeling). The cells were washed, treated with ribonuclease, washed and resuspended in medium containing propidium iodide to distinguish intact apoptotic cells. The contents of the assay wells were individually transferred into test tubes, and apoptosis was analyzed using a FACSCalibur flow cytometer (BD Immunocytometry Systems, San Jose, Calif.). Cells positive for Fl-dUTP were considered to be apoptotic, and the data were calculated as percent apoptotic cells.
For the assays in sections B and C, data were plotted as the concentration of compound incubated in serum versus percent apoptotic cells, and the concentration of compound inducing 50% apoptosis (ED50) was calculated from these dose response curves. The percent conversion of the test compounds to bioactive compound (assumed to be triptolide) was calculated in reference to the result with triptolide incubated in parallel in human serum in the same experiment, as the percent of the ED50 of the compound compared to that for triptolide, which was taken as 100%.

CC(C)C12OC1C1OC13C1(C)CCC4=C(COC4=O)C1CC1OC13C2OC(=O)CCC(=O)O (stereo not drawn) [14-succinate derivative of triptolide]
Tumor regression [1]: induced tumor regression | Tumor growth inhibition ([1]; in comparison to 5-FU and CPT-11): strongly inhibited tumor growth, to a significantly greater degree than 5-FU and CPT-11

CC(C)[C@]12O[C@H]1[C@@H]1O[C@]13[C@]1(O[C@H]1C[C@H]1C4=C(CC[C@@]13C)C(=O)OC4)[C@@H]2OC(=O)CC[C@H](N)C(=O)O [PG661, 14-γ-L-glutamate Ester of Triptolide]
EC50 ([2]; Jurkat cells, 24 h, compound pre-incubated 48 hr at 37° C. in pooled human serum, read-out: ED50 (nM) after 48 hr incubation with human serum): 34700 nM | Conversion (relative activity compared to PG490) (%) ([2]; percent of ED50 relative to triptolide incubated in parallel in human serum (taken as 100%)): 0.16% | Conversion (relative activity compared to PG490) (%) ([3]; IL-2 inhibition assay, percent of IC50 relative to triptolide incubated in parallel (taken as 100%)): 1.4% | IC50 ([3]; IL-2 inhibition, anti-CD3/PMA-stimulated Jurkat cells, 24 h, compound pre-incubated 48 hr in human serum, 50% decrease in IL-2 concentration): 330 nM

CC(C)[C@]12O[C@H]1[C@@H]1O[C@]13[C@]1(O[C@H]1C[C@H]1C4=C(CC[C@@]13C)C(=O)OC4)[C@@H]2OC(=O)CC[C@@H](NC(=O)OCc1ccccc1)C(=O)OCc1ccccc1 [PG660, Triptolide 14-α-Benzyl-N-benzyloxycarbonyl-D-glutamate Ester]
EC50 ([4]; Homo sapiens, Jurkat): 1100 nM | Conversion (relative activity compared to PG490) (%) [4]: 2.7%

CC(C)[C@]12O[C@H]1[C@@H]1O[C@]13[C@]1(O[C@H]1C[C@H]1C4=C(CC[C@@]13C)C(=O)OC4)[C@@H]2OC(=O)C(CCC(=O)OCc1ccccc1)NC(=O)OCc1ccccc1 (mixture of isomers) [PG657, Triptolide 14-γ-Benzyl-N-benzyloxycarbonyl-(L)-glutamate Ester, mixture with D-isomer]
EC50 [4]: 300 nM | Conversion (relative activity compared to PG490) (%) [4]: 10%

CC(C)[C@]12O[C@H]1[C@@H]1O[C@]13[C@]1(O[C@H]1C[C@H]1C4=C(CC[C@@]13C)C(=O)OC4)[C@@H]2OC(=O)CC[C@H](NC(=O)OC(C)(C)C)C(=O)OC(C)(C)C [PG658, Triptolide 14-N-t-Butoxycarbonyl-α-t-butyl-L-glutamate Ester]
EC50 ([4]; Homo sapiens, Jurkat): 750 nM | Conversion (relative activity compared to PG490) (%) [4]: 4.0%
